Source: ChEMBL document CHEMBL4806959, “Antagonistic peptides for frizzled-1 and frizzled-2” (2015)
Active and inactive are the calls of the source. No cut-off for these calls is given here. Positions of bridges follow the written chain, without caps; N, C: chain ends. Residues, ends and D or L forms follow the SMILES beside them.

Legend:
[1] = biological target: Frizzled-1 (Homo sapiens) (UniProt Q9UP38); assay: Agonist activity at frizzled-1 (unknown origin) expressed in human HEK293superTOP flash cells by luciferase reporter gene assay; format: functional, cell-based; conditions: HEK293
Frizzled-2 [2] = biological target: T1, Frizzled-2 (Homo sapiens, UniProt Q14332); assay: Antagonist activity at Wnt3a-stimulated frizzled-2 (unknown origin) expressed in human HEK293superTOP flash cells incubated for 24 hrs by luciferase reporter gene assay; format: functional, cell-based; conditions: HEK293
Target sequence in this assay (Q14332 24-565 limits assumed): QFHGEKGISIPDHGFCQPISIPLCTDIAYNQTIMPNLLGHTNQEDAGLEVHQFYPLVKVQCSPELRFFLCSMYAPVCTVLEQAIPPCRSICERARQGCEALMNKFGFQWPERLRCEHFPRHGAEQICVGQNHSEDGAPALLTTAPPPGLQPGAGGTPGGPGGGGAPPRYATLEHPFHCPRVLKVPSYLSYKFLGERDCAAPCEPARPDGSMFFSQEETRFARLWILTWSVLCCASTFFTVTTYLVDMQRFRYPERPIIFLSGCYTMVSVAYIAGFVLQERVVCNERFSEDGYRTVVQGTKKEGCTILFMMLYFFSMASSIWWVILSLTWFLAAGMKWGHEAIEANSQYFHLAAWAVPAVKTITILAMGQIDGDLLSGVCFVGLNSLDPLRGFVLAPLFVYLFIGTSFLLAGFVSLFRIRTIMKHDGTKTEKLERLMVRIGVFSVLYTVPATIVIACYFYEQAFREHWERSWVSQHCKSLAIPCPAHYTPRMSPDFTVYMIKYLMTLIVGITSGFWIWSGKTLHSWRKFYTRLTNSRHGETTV

Frizzled-2 [3] = biological target: T1, Frizzled-2; assay: Agonist activity at frizzled-2 (unknown origin) expressed in human HEK293superTOP flash cells by luciferase reporter gene assay; format: functional, cell-based; conditions: hek293
Target sequence in this assay (Q14332 whole entry): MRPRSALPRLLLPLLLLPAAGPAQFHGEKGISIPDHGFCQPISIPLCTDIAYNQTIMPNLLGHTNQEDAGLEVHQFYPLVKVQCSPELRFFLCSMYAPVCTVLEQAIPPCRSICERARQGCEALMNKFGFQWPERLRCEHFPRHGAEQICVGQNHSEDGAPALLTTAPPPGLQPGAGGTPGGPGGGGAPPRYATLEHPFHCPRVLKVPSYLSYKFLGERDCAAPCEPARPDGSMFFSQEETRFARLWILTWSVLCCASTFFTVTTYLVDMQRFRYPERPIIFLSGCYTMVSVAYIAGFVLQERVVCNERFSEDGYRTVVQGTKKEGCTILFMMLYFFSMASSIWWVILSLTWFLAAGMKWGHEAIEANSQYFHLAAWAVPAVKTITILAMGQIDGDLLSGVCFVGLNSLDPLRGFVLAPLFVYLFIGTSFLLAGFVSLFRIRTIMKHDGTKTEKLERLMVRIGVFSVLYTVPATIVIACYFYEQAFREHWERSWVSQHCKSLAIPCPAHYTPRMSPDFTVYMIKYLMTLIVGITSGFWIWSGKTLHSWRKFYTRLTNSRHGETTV

[4] = biological target: Frizzled-1 (Homo sapiens) (UniProt Q9UP38); assay: Antagonist activity at Wnt3a-stimulated frizzled-1 (unknown origin) expressed in human HEK293superTOP flash cells incubated for 24 hrs by luciferase reporter gene assay; format: functional, cell-based; conditions: HEK293
[5] = biological target: Frizzled-5 (Homo sapiens) (UniProt Q13467); assay: Agonist activity at frizzled-5 (unknown origin) expressed in human HEK293superTOP flash cells by luciferase reporter gene assay; format: functional, cell-based; conditions: HEK293
[6] = biological target: T2, Frizzled-4 (Homo sapiens) (UniProt Q9ULV1); assay: Agonist activity at frizzled-4 (unknown origin) expressed in human HEK293superTOP flash cells by luciferase reporter gene assay; format: functional, cell-based; conditions: HEK293
T2 sequence (whole entry): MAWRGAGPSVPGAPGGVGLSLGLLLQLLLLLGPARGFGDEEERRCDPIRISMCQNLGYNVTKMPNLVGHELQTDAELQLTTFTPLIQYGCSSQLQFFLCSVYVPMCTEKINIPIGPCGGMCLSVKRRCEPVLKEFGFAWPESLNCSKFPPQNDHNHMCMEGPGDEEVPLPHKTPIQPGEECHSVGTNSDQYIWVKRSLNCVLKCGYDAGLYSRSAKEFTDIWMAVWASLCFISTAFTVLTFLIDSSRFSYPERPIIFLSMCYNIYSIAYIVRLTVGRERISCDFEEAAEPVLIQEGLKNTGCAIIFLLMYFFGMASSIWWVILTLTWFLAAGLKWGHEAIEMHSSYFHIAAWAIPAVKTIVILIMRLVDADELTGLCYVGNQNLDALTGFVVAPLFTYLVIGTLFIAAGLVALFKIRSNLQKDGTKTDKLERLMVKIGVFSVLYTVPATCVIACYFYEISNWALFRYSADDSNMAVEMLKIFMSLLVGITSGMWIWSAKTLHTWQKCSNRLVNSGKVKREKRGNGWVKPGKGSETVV

[7] = biological target: Frizzled-2 (Rattus norvegicus) (UniProt Q08464); assay: Agonist activity at rat frizzled-2 expressed in CHO cells by luciferase reporter gene assay; format: cell-based
[8] = biological target: Frizzled-2 (Rattus norvegicus) (UniProt Q08464); assay: Agonist activity at rat frizzled-2 expressed in human HEK293superTOP flash cells by luciferase reporter gene assay; format: cell-based; conditions: HEK293
[9] = biological target: Frizzled-2 (Rattus norvegicus) (UniProt Q08464); assay: Agonist activity at rat frizzled-2 expressed in African green monkey COS7 cells by luciferase reporter gene assay; format: cell-based
[10] = biological target: Frizzled-1 (Rattus norvegicus) (UniProt Q08463); assay: Agonist activity at rat frizzled-1 expressed in human HEK293superTOP flash cells by luciferase reporter gene assay; format: cell-based; conditions: HEK293
[11] = biological target: Frizzled-1 (Rattus norvegicus) (UniProt Q08463); assay: Agonist activity at rat frizzled-1 expressed in African green monkey COS7 cells by luciferase reporter gene assay; format: cell-based
[12] = biological target: Frizzled-1 (Rattus norvegicus) (UniProt Q08463); assay: Agonist activity at rat frizzled-1 expressed in CHO cells by luciferase reporter gene assay; format: cell-based

Frizzled-2 (Rattus norvegicus), sequence (Q08464 29-570 limits assumed): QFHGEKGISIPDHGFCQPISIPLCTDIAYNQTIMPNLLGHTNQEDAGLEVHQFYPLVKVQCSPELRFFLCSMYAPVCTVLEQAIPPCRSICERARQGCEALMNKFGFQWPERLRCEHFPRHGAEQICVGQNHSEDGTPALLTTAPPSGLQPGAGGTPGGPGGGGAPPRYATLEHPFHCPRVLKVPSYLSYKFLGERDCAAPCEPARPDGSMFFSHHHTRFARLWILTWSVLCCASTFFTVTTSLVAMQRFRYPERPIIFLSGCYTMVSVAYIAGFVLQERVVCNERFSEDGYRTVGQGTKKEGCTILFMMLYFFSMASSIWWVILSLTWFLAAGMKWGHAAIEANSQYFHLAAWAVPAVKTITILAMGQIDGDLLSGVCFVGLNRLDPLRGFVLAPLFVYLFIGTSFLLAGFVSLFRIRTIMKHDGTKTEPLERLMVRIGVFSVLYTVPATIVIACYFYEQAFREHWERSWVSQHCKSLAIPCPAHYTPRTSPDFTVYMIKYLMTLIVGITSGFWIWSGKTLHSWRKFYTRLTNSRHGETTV
Frizzled-1 (Homo sapiens), sequence (Q9UP38 70-647 limits assumed): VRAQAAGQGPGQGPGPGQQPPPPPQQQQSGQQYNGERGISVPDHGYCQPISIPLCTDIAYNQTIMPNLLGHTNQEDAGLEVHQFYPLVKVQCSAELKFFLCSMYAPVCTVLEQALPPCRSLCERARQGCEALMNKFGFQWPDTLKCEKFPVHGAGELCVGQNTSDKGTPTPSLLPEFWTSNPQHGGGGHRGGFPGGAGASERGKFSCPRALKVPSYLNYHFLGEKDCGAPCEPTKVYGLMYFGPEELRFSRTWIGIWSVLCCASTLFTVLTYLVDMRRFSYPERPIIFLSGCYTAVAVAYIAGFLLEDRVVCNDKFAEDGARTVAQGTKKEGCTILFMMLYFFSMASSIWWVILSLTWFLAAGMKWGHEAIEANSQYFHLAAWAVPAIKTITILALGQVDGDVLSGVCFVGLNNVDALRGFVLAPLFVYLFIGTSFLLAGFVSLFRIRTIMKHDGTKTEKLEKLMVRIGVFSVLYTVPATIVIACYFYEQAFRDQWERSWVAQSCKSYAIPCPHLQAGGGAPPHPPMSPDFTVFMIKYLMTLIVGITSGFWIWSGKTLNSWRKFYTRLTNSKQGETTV
Frizzled-1 (Rattus norvegicus), sequence (Q08463 whole entry): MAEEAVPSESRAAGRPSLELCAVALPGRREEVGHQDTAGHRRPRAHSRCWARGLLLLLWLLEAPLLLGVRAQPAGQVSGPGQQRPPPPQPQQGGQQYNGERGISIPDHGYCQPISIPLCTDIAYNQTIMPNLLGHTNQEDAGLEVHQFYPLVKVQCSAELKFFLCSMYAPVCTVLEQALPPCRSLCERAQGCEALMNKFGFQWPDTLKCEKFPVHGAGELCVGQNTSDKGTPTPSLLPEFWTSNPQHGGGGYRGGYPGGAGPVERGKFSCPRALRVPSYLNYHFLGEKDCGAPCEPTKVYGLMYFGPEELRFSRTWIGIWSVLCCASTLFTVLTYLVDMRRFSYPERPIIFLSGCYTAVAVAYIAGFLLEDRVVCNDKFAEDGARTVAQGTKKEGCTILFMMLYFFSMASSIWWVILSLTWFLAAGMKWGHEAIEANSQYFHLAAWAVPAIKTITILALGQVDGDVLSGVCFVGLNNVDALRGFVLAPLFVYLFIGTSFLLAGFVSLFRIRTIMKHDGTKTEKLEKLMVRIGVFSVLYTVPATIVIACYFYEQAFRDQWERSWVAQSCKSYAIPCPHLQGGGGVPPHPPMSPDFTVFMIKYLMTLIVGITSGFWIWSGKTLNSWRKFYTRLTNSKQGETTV
Frizzled-5 (Homo sapiens), sequence (Q13467 whole entry): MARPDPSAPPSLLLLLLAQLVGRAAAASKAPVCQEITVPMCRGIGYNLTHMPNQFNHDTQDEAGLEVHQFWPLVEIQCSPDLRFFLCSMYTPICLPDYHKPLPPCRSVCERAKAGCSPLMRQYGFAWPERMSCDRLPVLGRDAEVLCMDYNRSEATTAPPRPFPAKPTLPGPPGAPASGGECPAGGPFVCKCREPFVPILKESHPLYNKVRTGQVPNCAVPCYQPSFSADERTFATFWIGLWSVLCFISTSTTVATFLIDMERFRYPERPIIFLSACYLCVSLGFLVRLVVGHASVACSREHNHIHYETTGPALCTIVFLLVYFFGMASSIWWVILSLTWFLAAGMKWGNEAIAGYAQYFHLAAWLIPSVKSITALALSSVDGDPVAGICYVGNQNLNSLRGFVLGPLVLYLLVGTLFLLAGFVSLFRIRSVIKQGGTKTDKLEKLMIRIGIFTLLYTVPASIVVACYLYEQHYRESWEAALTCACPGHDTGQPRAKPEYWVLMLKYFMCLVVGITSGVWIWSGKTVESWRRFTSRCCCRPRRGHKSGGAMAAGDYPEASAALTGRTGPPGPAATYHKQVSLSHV

SMILES	Activity [1]	inhibition (Frizzled-2 [2])	EC50 (Frizzled-2 [3])	inhibition [4]	Activity [5]	Activity [6]	Activity [7]	Activity [8]	Activity [9]	Activity [10]	Activity [11]	Activity [12]
CC(=O)N[C@@H](CS)C(=O)N[C@@H](CCCCN)C(=O)N[C@@H](CS)C(=O)N[C@@H](Cc1cnc[nH]1)C(=O)NCC(=O)N[C@H](C(=O)N[C@@H](CO)C(=O)NCC(=O)N[C@@H](CO)C(=O)N[C@@H](CS)C(=O)N[C@H](C(=O)N[C@H](C(=O)N[C@@H](CCCCN)C(=O)N[C@H](C(=O)N[C@@H](CS)C(=O)N[C@@H](Cc1c[nH]c2ccccc12)C(N)=O)[C@@H](C)O)C(C)C)[C@@H](C)O)C(C)C (Ac-CKCHGVSGSCTVKTCW-NH2)	inactive	inactive	Not Active	inactive								
CC(=O)N[C@@H](CC(=O)O)C(=O)N[C@@H](CC(C)C)C(=O)N[C@H](C(=O)N[C@@H](Cc1ccc(O)cc1)C(=O)N[C@@H](Cc1ccccc1)C(=O)N[C@@H](CCC(=O)O)C(=O)N[C@@H](CC(C)C)C(=O)N[C@@H](CO)C(=O)N1CCC[C@H]1C(=O)N[C@@H](CC(=O)O)C(=O)N[C@@H](Cc1ccccc1)C(=O)N[C@@H](CS)C(=O)N[C@@H](C)C(N)=O)C(C)C (Ac-DLVYFELSPDFCA-NH2)	inactive	inactive	Not Active	inactive								
CC[C@H](C)[C@H](NC(=O)[C@H](CC(N)=O)NC(=O)[C@H](CC(=O)O)NC(=O)[C@H](CO)NC(=O)[C@H](CS)NC(=O)[C@H](CCC(=O)O)NC(=O)CNC(=O)[C@H](Cc1c[nH]c2ccccc12)NC(=O)[C@H](CCC(=O)O)NC(=O)[C@H](Cc1c[nH]c2ccccc12)NC(=O)[C@H](CC(=O)O)NC(=O)CNC(C)=O)C(N)=O (Ac-GDWEWGECSDNI-NH2)	inactive	inactive	Not Active	inactive								
CC[C@H](C)[C@H](NC(=O)CNC(C)=O)C(=O)N[C@@H](CCCCN)C(=O)N[C@@H](CCC(=O)O)C(=O)N[C@@H](CS)C(=O)N[C@@H](CCC(N)=O)C(=O)N[C@@H](Cc1ccc(O)cc1)C(=O)N[C@@H](CCC(N)=O)C(=O)N[C@@H](Cc1ccccc1)C(=O)N[C@@H](CCCNC(=N)N)C(=O)N[C@@H](Cc1c[nH]cn1)C(=O)N[C@@H](CCCNC(=N)N)C(=O)N[C@@H](CCCNC(=N)N)C(=O)N[C@@H](Cc1c[nH]c2ccccc12)C(=O)N[C@@H](CC(N)=O)C(=O)N[C@@H](CS)C(=O)N[C@@H](CO)C(=O)N[C@H](C(=O)N[C@H](C(=O)N[C@@H](CC(=O)O)C(N)=O)C(C)C)[C@@H](C)O (Ac-GIKECQYQFRHRRWNCSTVD-NH2)							inactive	inactive	inactive	inactive	inactive	inactive
CC(=O)NCC(=O)N[C@@H](CO)C(=O)N[C@@H](CS)C(=O)N[C@@H](CO)C(=O)N[C@@H](CC(C)C)C(=O)N[C@@H](CCCCN)C(=O)N[C@H](C(=O)N[C@@H](CS)C(=O)N[C@@H](Cc1c[nH]c2ccccc12)C(=O)N[C@@H](CC(C)C)C(=O)N[C@@H](CCC(N)=O)C(=O)N[C@@H](CC(C)C)C(=O)N[C@@H](C)C(=O)N[C@@H](CC(=O)O)C(N)=O)[C@@H](C)O (Ac-GSCSLKTCWLQLAD-NH2)							inactive	inactive	inactive	inactive	inactive	inactive
CC[C@H](C)[C@H](NC(C)=O)C(=O)N[C@@H](CCC(=O)O)C(=O)N[C@@H](CCC(=O)O)C(=O)N[C@@H](CS)C(=O)N[C@@H](CCC(N)=O)C(=O)N[C@@H](Cc1cnc[nH]1)C(=O)N[C@@H](CCC(N)=O)C(=O)N[C@@H](Cc1ccccc1)C(=O)N[C@@H](CCCNC(=N)N)C(=O)N[C@@H](CC(=O)O)C(=O)N[C@@H](CCCNC(=N)N)C(=O)N[C@@H](CCCNC(=N)N)C(=O)N[C@@H](Cc1c[nH]c2ccccc12)C(=O)N[C@@H](CC(N)=O)C(=O)N[C@@H](CS)C(N)=O (Ac-IEECQHQFRDRRWNC-NH2)	inactive	inactive	Not Active	inactive								

Second part, the molecule after the results:

Activity [1]	inhibition (Frizzled-2 [2])	EC50 (Frizzled-2 [3])	inhibition [4]	Activity [5]	Activity [6]	Activity [7]	Activity [8]	Activity [9]	Activity [10]	Activity [11]	Activity [12]	SMILES
inactive	inactive	Not Active	inactive									CSCC[C@H](NC(=O)CNC(=O)[C@H](CO)NC(=O)[C@H](CCCCN)NC(=O)[C@H](CC(N)=O)NC(=O)[C@H](CS)NC(C)=O)C(=O)N[C@@H](CC(=O)O)C(=O)NCC(=O)N[C@@H](CS)C(=O)N[C@@H](CCC(=O)O)C(=O)N[C@@H](CC(C)C)C(N)=O (Ac-CNKSGMDGCEL-NH2)
				inactive	inactive							CSCC[C@@H]1NC(=O)CNC(=O)[C@H](CCC(=O)O)NC(=O)[C@H](CO)NC(=O)[C@H]([C@@H](C)O)NC(=O)[C@H](CCCCN)NC(=O)[C@H](CC(N)=O)NC(=O)[C@@H](NC(C)=O)CSSC[C@@H](C(=O)N[C@@H](CCC(=O)O)C(=O)N[C@@H](CC(C)C)C(N)=O)NC(=O)CNC(=O)[C@H](CC(=O)O)NC1=O (Ac-CNKTSEGMDGCEL-NH2; disulfide 1-11)
inactive	inactive	Not Active	inactive									CC(=O)NCC(=O)N[C@@H](CO)C(=O)N[C@@H](CCCCN)C(=O)NCC(=O)N[C@H](C(=O)N[C@@H](CCC(N)=O)C(=O)NCC(=O)N[C@@H](CCCNC(=N)N)C(=O)N[C@@H](C)C(=O)N[C@@H](CS)C(=O)N[C@@H](CC(N)=O)C(N)=O)[C@@H](C)O (Ac-GSKGTQGRACN-NH2)
inactive	inactive	Not Active	inactive									CSCC[C@H](NC(C)=O)C(=O)N[C@@H](CC(N)=O)C(=O)N[C@@H](CCCNC(=N)N)C(=O)N[C@@H](Cc1cnc[nH]1)C(=O)N[C@@H](CC(N)=O)C(=O)N[C@@H](CC(N)=O)C(=O)N[C@@H](CCC(=O)O)C(=O)N[C@@H](C)C(=O)NCC(=O)N[C@@H](CCCNC(=N)N)C(N)=O (Ac-MNRHNNEAGR-NH2)
